The source of these data is article PMC10687260, “1,3-Diphenylureido hydroxamate as a promising scaffold for generation of potent antimalarial histone deacetylase inhibitors” (Scientific Reports, 2023).

Structures are written as SMILES.

The nature of data set [1]: Stability in mouse hepatic microsomes. Type of data set: in vitro ADME. From the text: (§1) DMPK evaluation. […].
Data set [2] is described as follows: Stability in human hepatic microsomes. Type of data set: in vitro ADME.
Source text: as §1

The next data set has as its system HepG2 cells. Description: Cytotoxicity in human HepG2 cells (WST-1). Type of data set: cell-based. The following applies: Homo sapiens, HepG2; 48 h, WST-1; read-out: IC50 HepG2. The procedure: Cytotoxicity in human HepG2 cells.[47] […] Cytotoxic effects of compounds were assessed using the cell proliferation reagent WST-1 (Roche; CELLPRO-RO) in a 96-well plate-based screening assay. HepG2 cells were seeded at 10^4 cells/well (100 μL) in 96-well flat-bottom plates (Sarstedt) the night before the experiment to allow attachment of cells. The next day, two-fold serial dilutions of compounds were prepared in fresh medium in an extra plate, and the medium of cells was replaced by the medium containing the compound dilutions. Non-treated cells (max. proliferation), cells treated with the maximal solvent concentration (DMSO; solvent control), and medium with the maximal compound concentration (native absorbance) used as controls. […] Subsequently, 10 μL WST-1 was added to each well and plates were incubated for additional 4 h under standard conditions. WST-1 is a tetrazolium salt and is metabolised by the mitochondrial succinate-tetrazolium-reductase system of living cells and forms formazan, whose absorbance was measured at 450 nm. Absorbance at 630 nm was assessed to check for protein and precipitation background. Both measurements were acquired via the CLARIOstar (V5.20) and MARS software, manually scaled to 0–100%, and plotted with GraphPad Prism (version 9.5.2 for Windows, GraphPad Software, La Jolla California USA).

For a further data set, the system named is P. falciparum 3D7. Description: Antiplasmodial SYBR Green I proliferation assay, P. falciparum 3D7. The note with it: Plasmodium falciparum, 3D7, 96 h, 96 h; values in brackets 95% confidence intervals; read-out: IC50 Pf3D7. The class given is cell-based, Plasmodium falciparum. The text has this:
Antiplasmodial activity against P. falciparum 3D7 (A, C and E) and P. falciparum Dd2 (B, D, F). […] Curves were plotted using non-linear regression based on means from three independent experiments measured in triplicate. Error bars indicate standard deviation, whose values are provided in the respective table.
Plasmodium falciparum culture and antiplasmodial activity. […] Development, parasitaemia, and morphology of parasites were monitored by light microscopy of thin blood smears stained according to the Romanowsky method (Panótico Rápido staining kit; Laborclin, Pinhais, Paraná, Brazil). […] Fresh 0^+ blood was generously provided by “Hospital Novo Atibaia” (Atibaia, SP, Brazil), and approved by the ethics committee at ICB-USP. The antiplasmodial effect of all compounds was validated against P. falciparum 3D7 strain conducting SYBR Green I (Invitrogen) drug assays as previously reported[30],[46] as a modification of the original procedure. […] Parasite proliferation was measured by the DNA load via fluorescence, using 100 μL of a lysis buffer with SYBR Green I (0.02% v/v) and incubated for 1 h at room temperature in the dark. […] Focal and gain adjustment was performed using the non-treated controls (highest expected fluorescence signal). Data was acquired via the CLARIOstar (V5.20) and MARS software, manually scaled to 0–100%, and plotted using GraphPad Prism (v9.5.2 for Windows, GraphPad Software, La Jolla California USA, www.graphpad.com). Non-treated parasites, the highest solvent concentration on parasites, CQ on parasites, and the highest drug concentration in the medium were used as controls for maximal growth, solvent control, positive biological control, and native drug fluorescence, respectively.

The next data set has as its target T1, CYP450 2D6 (Homo sapiens, UniProt P10635).
T1 construct: 10 μM compound was incubated with human liver microsomes and selective marker substrates; from tissue; host or cells: human liver microsomes
The experiment in a line: CYP450 inhibition in human liver microsomes, 2D6. The class given is in vitro ADME. The following applies: Tested concentration: 40 µM.

A further data set addresses T2, CYP450 2C9 (Homo sapiens, UniProt P11712).
T2 construct: 10 μM compound was incubated with human liver microsomes and selective marker substrates; from tissue; host or cells: human liver microsomes
Description: CYP450 inhibition in human liver microsomes, 2C9. Type of data set: in vitro ADME. The note with it: Tested concentration: 40 µM.

In another data set the target is T3, human HDAC6 (Homo sapiens, UniProt Q9UBN7).
T3 construct: purchased ENZO Life Sciences AG (Lausen, CH)
T3 sequence (Q9UBN7 1-1215): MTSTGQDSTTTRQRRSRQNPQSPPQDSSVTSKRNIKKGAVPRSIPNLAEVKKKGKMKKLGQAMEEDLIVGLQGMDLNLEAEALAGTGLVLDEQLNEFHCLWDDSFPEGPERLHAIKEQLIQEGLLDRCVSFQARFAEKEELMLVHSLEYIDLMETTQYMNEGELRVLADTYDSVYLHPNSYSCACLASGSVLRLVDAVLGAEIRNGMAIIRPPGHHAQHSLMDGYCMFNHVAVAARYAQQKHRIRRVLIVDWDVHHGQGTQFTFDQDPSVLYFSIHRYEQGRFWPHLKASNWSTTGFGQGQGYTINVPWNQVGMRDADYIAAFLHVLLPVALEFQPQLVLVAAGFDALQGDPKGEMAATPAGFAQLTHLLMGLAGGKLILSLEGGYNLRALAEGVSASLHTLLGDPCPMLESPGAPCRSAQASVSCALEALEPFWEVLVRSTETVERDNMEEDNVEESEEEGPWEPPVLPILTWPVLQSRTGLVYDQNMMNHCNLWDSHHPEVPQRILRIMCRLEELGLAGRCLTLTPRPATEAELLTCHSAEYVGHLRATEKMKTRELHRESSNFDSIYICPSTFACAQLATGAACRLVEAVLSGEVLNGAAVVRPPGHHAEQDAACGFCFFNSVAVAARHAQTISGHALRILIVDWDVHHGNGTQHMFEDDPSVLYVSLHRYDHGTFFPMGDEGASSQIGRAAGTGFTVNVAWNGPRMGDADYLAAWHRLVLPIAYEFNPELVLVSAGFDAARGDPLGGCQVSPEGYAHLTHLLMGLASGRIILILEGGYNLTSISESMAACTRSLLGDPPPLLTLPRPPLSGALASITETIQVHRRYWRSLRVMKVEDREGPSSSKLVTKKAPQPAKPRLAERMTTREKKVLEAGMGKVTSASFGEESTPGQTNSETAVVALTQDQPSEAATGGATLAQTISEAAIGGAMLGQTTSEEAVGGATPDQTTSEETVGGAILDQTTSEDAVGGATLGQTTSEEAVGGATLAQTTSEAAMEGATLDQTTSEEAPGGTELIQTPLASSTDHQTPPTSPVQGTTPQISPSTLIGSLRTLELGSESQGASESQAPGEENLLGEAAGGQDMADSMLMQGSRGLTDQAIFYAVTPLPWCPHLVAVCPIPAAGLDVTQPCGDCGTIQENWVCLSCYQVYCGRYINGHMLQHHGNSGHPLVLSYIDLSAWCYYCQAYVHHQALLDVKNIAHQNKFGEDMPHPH
Description: In vitro HDAC enzymatic assay, HDAC6. The class given is biochemical. The note with it: for IC50: mean ± SD; for HDAC1/6 SI: ratio HsHDAC1 IC50/HsHDAC6 IC50. The procedure: (§2) In vitro HDAC enzymatic assays. Recombinant human HDAC1 and HDAC6 were purchased from ENZO Life Sciences AG (Lausen, CH) whereas HDAC8 was produced as described before. In vitro testing of the inhibitors in an enzymatic assay was carried out as described in previous publications[32],[33]. For HDAC1 a fluorogenic peptide derived from p53 (Ac-RHKK(Acetyl)-AMC) was used. For HDAC6, the substrate (Abz-SRGGK(thio-TFA)FFRR-NH2) was used as described before.

The target in the next data set is T4, HDAC8 (Homo sapiens, UniProt Q9BY41).
T4 construct: made in house
T4 sequence (Q9BY41 1-377): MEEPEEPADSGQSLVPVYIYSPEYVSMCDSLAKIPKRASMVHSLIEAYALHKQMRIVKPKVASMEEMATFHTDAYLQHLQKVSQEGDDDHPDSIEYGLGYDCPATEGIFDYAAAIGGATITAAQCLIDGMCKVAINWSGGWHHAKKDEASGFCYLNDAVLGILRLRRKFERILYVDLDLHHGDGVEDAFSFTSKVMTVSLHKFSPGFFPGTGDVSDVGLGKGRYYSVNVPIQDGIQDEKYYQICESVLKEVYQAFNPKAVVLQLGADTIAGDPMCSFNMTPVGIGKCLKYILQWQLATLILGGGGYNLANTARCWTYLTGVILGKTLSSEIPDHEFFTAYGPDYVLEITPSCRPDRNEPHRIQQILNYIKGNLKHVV
The experiment in a line: In vitro HDAC enzymatic assay, HDAC8. Type of data set: biochemical. The following applies: mean ± SD. As for the experimental part:
as §2

A further data set deals with T5, human HDAC1 (Homo sapiens, UniProt Q13547).
T5 construct: purchased ENZO Life Sciences AG (Lausen, CH)
T5 sequence (Q13547 whole entry): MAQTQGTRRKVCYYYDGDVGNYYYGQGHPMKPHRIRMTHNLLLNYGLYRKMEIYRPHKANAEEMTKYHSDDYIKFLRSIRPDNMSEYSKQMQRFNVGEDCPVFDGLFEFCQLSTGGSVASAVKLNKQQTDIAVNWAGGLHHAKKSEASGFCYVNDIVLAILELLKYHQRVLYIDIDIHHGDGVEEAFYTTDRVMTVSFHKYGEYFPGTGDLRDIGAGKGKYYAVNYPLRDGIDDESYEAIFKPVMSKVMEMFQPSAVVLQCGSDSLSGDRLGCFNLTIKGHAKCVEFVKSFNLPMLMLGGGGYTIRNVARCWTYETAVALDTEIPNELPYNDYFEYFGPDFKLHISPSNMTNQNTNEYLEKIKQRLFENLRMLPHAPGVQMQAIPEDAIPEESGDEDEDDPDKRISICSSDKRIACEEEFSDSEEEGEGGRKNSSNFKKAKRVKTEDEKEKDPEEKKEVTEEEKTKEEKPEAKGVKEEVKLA
The experiment in a line: In vitro HDAC enzymatic assay, HDAC1. The class given is biochemical. The note with it: mean ± SD. The procedure:
as §2

T2 sequence (P11712 whole entry): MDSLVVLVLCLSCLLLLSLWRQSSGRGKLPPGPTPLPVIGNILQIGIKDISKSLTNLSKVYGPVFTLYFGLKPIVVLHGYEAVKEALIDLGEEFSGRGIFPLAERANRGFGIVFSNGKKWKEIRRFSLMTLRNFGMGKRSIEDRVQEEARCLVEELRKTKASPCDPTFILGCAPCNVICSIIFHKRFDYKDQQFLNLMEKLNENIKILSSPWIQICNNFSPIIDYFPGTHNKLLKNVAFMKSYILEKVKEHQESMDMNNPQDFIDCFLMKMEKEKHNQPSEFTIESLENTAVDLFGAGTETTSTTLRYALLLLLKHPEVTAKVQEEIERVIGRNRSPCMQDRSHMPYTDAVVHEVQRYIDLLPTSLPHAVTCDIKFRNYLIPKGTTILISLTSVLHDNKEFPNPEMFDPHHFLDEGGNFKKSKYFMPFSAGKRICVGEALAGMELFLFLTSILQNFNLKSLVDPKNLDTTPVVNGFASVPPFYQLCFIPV
T1 sequence (P10635 whole entry): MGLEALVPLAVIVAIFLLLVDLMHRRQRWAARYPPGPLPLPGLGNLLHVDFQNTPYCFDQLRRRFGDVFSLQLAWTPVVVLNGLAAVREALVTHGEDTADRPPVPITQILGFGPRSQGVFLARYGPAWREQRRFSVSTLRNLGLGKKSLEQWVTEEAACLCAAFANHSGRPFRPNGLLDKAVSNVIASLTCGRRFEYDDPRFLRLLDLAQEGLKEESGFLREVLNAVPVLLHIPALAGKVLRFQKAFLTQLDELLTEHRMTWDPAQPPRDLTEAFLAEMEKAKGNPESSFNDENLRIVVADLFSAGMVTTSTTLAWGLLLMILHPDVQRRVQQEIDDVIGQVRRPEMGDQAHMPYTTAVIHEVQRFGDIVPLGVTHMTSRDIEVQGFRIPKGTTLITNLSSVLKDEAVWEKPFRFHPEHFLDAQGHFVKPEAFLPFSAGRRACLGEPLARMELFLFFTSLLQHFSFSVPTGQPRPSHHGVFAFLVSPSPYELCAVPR

Consider `CCN(CC)CCNC(=O)c1c(C)[nH]c(/C=C2\C(=O)Nc3ccc(F)cc32)c1C` [Sunitinib, reference compound], for which the half-life at 1 µM in data set [1] (1 mg/mL hepatic microsomes, 1 µM compound, read-out: Half-life t1/2 Mouse) was 9.1 min; in data set [2] (1 mg/mL hepatic microsomes, 1 µM compound, read-out: Half-life t1/2 Human), 22.3 min. Moreover, the microsomal CLint at 1 µM amounted to 76 µL/min/mg in [1] (read-out: Intrinsic clearance Clint Mouse) and 31 µL/min/mg in data set [2] (read-out: Intrinsic clearance Clint Human).
As usually defined, the IC50 is the concentration at which inhibition is half-maximal. In the case of `O=C(Nc1ccc(F)cc1)Nc1ccc(C(=O)NO)cc1` [Compound 8f., 4-(3-(4-fluorophenyl)ureido)-N-hydroxybenzamide], the values for the IC50 with HepG2 cells and with P. falciparum 3D7 were 116 µM and 0.4 µM, respectively.
`Cc1nc2c([nH]1)c(=O)n(C)c(=O)n2Cc1ccco1` [Furafylline, reference compound]: the “CYP450% inhibition 2D6” value at CYP450 2D6 was “* (Inhibition < 10%)”. For the same compound, the “CYP450% inhibition 2C9” value at CYP450 2C9 is given as “* (Inhibition < 10%)”.
Turning to `O=C(/C=C/c1ccc(NC(=O)Nc2ccc(Cl)cc2)cc1)NO` [Compound 6b, (E)-3-(4-(3-(4-chlorophenyl)ureido)phenyl)-N-hydroxyacrylamide], the values for the half-maximal inhibitory concentration (IC50) with HepG2 cells, on human HDAC6 and in the data set with P. falciparum 3D7 were 28.8 µM, 0.0143 ± 0.0022 µM and 7.88 µM, respectively.
As for `Nc1ccc(NC(=O)Nc2ccc(C(=O)NO)cc2)cc1` [Compound 8j, 4-(3-(4-aminophenyl)ureido)-N-hydroxybenzamide], the half-inhibitory concentration (IC50) was above 200 µM with HepG2 cells and 0.35 µM with P. falciparum 3D7.
On the same counts, the results for `Nc1ccc(C(=O)NO)cc1` [Compound 15, 4-amino-N-hydroxybenzamide] are above 200 µM and 6.3 µM.
As a reminder, the melting point is the temperature of the solid-liquid transition. On to `N/C(=N\O)c1ccc(NC(=O)Nc2ccc(C(=O)NO)cc2)cc1` [8 h, (Z)-N-hydroxy-4-(3-(4-(N'-hydroxycarbamimidoyl)phenyl)ureido)benzamide], for which the melting point lay in the range of 97 to 99 °C. On HDAC8, this compound returned an IC50 of 0.164 ± 0.0091 µM. The compound further registered a half-inhibitory concentration (IC50) at human HDAC1 of 8.3 ± 0.481 µM. Further, the IC50 in the data set on HepG2 cells is above 200 µM. Moreover, on human HDAC6, half-maximal inhibition (IC50) was put at 0.0213 ± 0.0005 µM and the “HDAC1/6 SI” value was determined as 390. Moreover, the IC50 in the data set with P. falciparum 3D7 was 0.39 µM.
As for `O=C(Nc1ccc(OC(F)(F)F)cc1)Nc1ccc(C(=O)NO)cc1` [8 g, N-hydroxy-4-(3-(4-(trifluoromethoxy)phenyl)ureido)benzamide], the IC50 was 60.5 µM with HepG2 cells and 13.9 µM in the data set with P. falciparum 3D7.
Take `O=C(/C=C/c1ccc(NC(=O)Nc2ccc([N+](=O)[O-])cc2)cc1)NO` [Compound 6d, (E)-N-hydroxy-3-(4-(3-(4-nitrophenyl)ureido)phenyl)acrylamide]: the melting point fell in the range of 167 to 168 °C. In addition, the 50% inhibitory concentration (IC50) on HDAC8 worked out at 0.0991 ± 0.0109 µM. On human HDAC1, this compound had an IC50 of 1.11 ± 0.0563 µM. For the same compound, the IC50 in the data set with HepG2 cells is 10.4 µM. On human HDAC6, the IC50 came out at 0.009 ± 0.0007 µM and the “HDAC1/6 SI” value was 124. In the data set on P. falciparum 3D7, the half-maximal inhibitory concentration (IC50) was found to be 1.26 µM.
As to `N#Cc1ccc(NC(=O)Nc2ccc(C(=O)NO)cc2)cc1` [8 k, 4-(3-(4-cyanophenyl)ureido)-N-hydroxybenzamide], the melting point was in the range of 220 to 222 °C. The same compound gave an IC50 at HDAC8 of 0.0515 ± 0.0061 µM. The same compound displayed an IC50 against human HDAC1 of 3.75 ± 0.563 µM. Also, in the data set with HepG2 cells, the IC50 is above 200 µM. Also, on human HDAC6, it took 0.0116 ± 0.0002 µM to reach half-maximal inhibition (IC50) and the “HDAC1/6 SI” value is 323. In the data set with P. falciparum 3D7, the IC50 amounted to 0.26 µM.
Turning to `Cc1ccc(NC(=O)Nc2ccc(C(=O)NO)cc2)cc1` [Compound 8e, N-hydroxy-4-(3-(p-tolyl)ureido)benzamide], the figures for the concentration for half-maximal inhibition (IC50) in the data set with HepG2 cells and in the data set with P. falciparum 3D7 were above 200 µM and 0.34 µM, respectively.
For `O=C(CCc1ccc(NC(=O)Nc2ccc(Cl)cc2)cc1)NO` [Compound 7b, 3-(4-(3-(4-chlorophenyl)ureido)phenyl)-N-hydroxypropanamide], the melting point is 286 °C (dec.). Besides, the midpoint of inhibition at HDAC8, the IC50, lay at 0.568 ± 0.0405 µM. The compound further yielded a half-inhibitory concentration (IC50) against human HDAC1 of 4.78 ± 0.446 µM. Also, the half-inhibitory concentration (IC50) in the data set with HepG2 cells is above 50 µM. Besides, at human HDAC6, the half-inhibitory concentration (IC50) is 0.185 ± 0.0216 µM and the “HDAC1/6 SI” value turned out to be 26. The IC50 in the data set on P. falciparum 3D7 came out at 7.04 µM.
Consider `O=C(Nc1ccc(C(=O)NO)cc1)Nc1ccc(C(F)(F)F)cc1` [Compound 8i, N-hydroxy-4-(3-(4-(trifluoromethyl)phenyl)ureido)benzamide], for which the IC50 turned out to be 25.1 µM in the data set on HepG2 cells and 1.3 µM with P. falciparum 3D7.
